Source: ChEMBL document CHEMBL4219032, “Triple Reuptake Inhibitors as Potential Therapeutics for Depression and Other Disorders: Design Paradigm and Developmental Challenges” (J Med Chem, 2018)

What was measured:
[1] = target: T1, Sodium-dependent dopamine transporter (Homo sapiens, UniProt Q01959); assay: Inhibition of DAT (unknown origin) assessed as reduction of [3H]-DA re-uptake
Rattus norvegicus [2] = assay: In vivo receptor occupancy at NET in Sprague-Dawley rat at 0.1 mg/kg, sc measured at 1 to 8 hrs post dose; format: functional
[3] = target: T1, Sodium-dependent dopamine transporter
Description: Binding affinity to DAT (unknown origin)

Rattus norvegicus [4] = assay: In vivo receptor occupancy at DAT in Sprague-Dawley rat at 0.1 mg/kg, sc measured at 1 to 8 hrs post dose; format: functional
[5] = target: Sodium-dependent serotonin transporter (Homo sapiens, UniProt P31645)
Sequence of Sodium-dependent serotonin transporter (P31645 whole entry): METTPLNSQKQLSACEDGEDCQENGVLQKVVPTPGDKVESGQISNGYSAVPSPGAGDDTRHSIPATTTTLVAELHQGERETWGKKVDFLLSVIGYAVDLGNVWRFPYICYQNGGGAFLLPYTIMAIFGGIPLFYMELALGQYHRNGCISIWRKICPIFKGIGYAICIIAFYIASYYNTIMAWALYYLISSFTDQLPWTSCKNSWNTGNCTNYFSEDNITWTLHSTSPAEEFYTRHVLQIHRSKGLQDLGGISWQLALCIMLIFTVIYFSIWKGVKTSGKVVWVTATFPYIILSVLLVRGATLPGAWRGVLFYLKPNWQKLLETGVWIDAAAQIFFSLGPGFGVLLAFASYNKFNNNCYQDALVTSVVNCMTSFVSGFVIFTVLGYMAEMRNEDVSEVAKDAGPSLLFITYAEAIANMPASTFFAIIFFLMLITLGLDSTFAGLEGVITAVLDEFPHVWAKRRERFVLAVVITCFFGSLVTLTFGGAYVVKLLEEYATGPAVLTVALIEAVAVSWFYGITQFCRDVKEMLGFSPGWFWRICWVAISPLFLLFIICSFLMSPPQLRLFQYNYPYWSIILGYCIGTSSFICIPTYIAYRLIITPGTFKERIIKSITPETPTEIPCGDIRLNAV
Description: Binding affinity to SERT (unknown origin)

[6] = Ratio of drug uptake in Sprague-Dawley rat brain to plasma at 1 mg/kg, sc by HPLC analysis; format: ADME, organism-based; settings: read-out: BPR
Rattus norvegicus [7] = assay: In vivo receptor occupancy at SERT in Sprague-Dawley rat at 0.1 mg/kg, sc measured at 1 to 8 hrs post dose; format: functional
[8] = target: Sodium-dependent noradrenaline transporter (Homo sapiens, UniProt P23975)
Sequence of Sodium-dependent noradrenaline transporter (P23975 whole entry): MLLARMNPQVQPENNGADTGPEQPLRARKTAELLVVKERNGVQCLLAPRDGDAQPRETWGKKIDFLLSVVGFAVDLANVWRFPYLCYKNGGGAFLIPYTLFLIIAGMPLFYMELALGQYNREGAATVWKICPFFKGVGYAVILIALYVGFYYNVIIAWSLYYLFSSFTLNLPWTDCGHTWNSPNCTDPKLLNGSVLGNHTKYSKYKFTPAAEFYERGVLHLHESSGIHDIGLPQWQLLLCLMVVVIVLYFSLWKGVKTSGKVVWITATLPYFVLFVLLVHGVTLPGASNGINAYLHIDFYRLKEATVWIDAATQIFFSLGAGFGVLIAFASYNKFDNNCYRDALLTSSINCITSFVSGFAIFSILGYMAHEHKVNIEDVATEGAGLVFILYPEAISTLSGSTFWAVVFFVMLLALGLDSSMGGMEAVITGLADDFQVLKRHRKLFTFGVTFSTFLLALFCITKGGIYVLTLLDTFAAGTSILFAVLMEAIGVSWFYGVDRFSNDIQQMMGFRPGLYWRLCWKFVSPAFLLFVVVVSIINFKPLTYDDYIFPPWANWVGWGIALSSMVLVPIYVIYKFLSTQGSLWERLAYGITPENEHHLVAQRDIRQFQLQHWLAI
Description: Binding affinity to NET (unknown origin)

Rattus norvegicus [9] = assay: In vivo receptor occupancy at NET in ip dosed rat brain measured 60 mins post dose; format: functional; settings: 1 h
Mus musculus [10] = assay: Reversal of motor depression in po dosed mouse measured at 3rd, 6th and 23rd hr followed by second administration on 24th hr administered as 4 injections for 4 consecutive days measured from day 3 to 10 days post last dose; format: functional; settings: read-out: MED
Rattus norvegicus [11] = assay: In vivo receptor occupancy at SERT in ip dosed rat brain measured 60 mins post dose; format: functional; settings: 1 h
Rattus norvegicus [12] = assay: In vivo receptor occupancy at DAT in ip dosed rat brain measured 60 mins post dose; format: functional; settings: 1 h
Mus musculus [13] = assay: Reversal of ptosis in po dosed mouse measured at 3rd, 6th and 23rd hr followed by second administration on 24th hr administered as 4 injections for 4 consecutive days measured from day 3 to 10 days post last dose; format: functional

T1 sequence (Q01959 whole entry): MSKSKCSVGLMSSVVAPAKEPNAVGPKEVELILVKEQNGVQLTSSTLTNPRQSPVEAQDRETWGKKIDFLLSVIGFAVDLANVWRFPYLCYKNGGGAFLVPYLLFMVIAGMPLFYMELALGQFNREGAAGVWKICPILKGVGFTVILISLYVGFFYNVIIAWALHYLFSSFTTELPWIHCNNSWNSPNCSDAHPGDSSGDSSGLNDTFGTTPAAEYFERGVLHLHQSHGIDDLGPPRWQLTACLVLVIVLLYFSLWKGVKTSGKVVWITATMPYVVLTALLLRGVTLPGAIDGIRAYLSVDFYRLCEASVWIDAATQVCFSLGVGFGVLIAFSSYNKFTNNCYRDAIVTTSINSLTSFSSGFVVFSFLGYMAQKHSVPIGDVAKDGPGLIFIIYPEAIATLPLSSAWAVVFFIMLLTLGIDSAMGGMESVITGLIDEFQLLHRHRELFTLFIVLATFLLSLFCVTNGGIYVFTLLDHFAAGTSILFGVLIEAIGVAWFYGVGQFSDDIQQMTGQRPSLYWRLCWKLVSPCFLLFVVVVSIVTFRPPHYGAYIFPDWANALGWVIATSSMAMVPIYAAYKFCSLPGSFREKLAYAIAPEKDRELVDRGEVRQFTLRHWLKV

**Q.** Which IC50 [1] does the source give for CNC[C@H]1C2CCC(C2)[C@@H]1c1ccc2ccccc2c1 (stereo partly drawn) here?
**A.** 96 nM

**Q.** With C#Cc1ccc(C2CN3CCCC3c3ccccc32)cc1 (racemic) as the compound, how does the Occ (Rattus norvegicus [2]) read?
**A.** 95%

**Q.** And the Ki [3]?
**A.** 5.2 nM

**Q.** What about the Occ (Rattus norvegicus [4]) of the same compound?
**A.** 50%

**Q.** And the Ki [5]?
**A.** 0.9 nM

**Q.** And the Kp [6]?
**A.** 7.5

**Q.** And the Occ (Rattus norvegicus [7])?
**A.** 94%

**Q.** What about the Ki [8] of the same compound?
**A.** 16.6 nM

**Q.** Which ED50 (Rattus norvegicus [9]) does the source give for Clc1ccc([C@]23CNC[C@H]2C3)cc1Cl [AMITIFADINE] here?
**A.** 19 mg/kg

**Q.** What about the minimal effective dose (Mus musculus [10]) of the same compound?
**A.** 1.6 mg/kg

**Q.** And the ED50 (Rattus norvegicus [11])?
**A.** 3 mg/kg

**Q.** And the ED50 (Rattus norvegicus [12])?
**A.** 95 mg/kg

**Q.** What about the ED50 (Mus musculus [13]) of the same compound?
**A.** 2.2 mg/kg
